# Measurements from patent US20090047246A1, “NOVEL INHIBITORS OF HEPATITIS C VIRUS REPLICATION” (InterMune, Inc., priority 2007, published 2009).
# Like-named read-outs stand apart in the source and are kept apart here.
# Target: T1, HCV NS3 helicase (Hepatitis C virus genotype 1b, UniProt P26663)
# T1 construct: full-length NS3 (1-631), purified at Array BioPharma
# Assay: HCV Helicase Prompt FRET Assay (Example A)
# Format: biochemical
# Details: read-out: IC50 Activity
# Method in brief: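 Initial unwinding rates, monitored as FAM fluorescence gain (ex 485, em 535) over ~30 min at room temperature, gave IC50 via 4- or 5-parameter logistic fits. Reactions: 50 nM quenched duplex, 250 nM capture strand, 300 μM ATP, 5–6 nM NS3 1-631 after 5 min compound preincubation, MOPS pH 7.0 buffer, 2% DMSO.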
# [1] = Table 31, compounds made using Schemes 38-45
# [2] = Table 32, compounds made using Schemes 46-49
# T1 sequence (P26663 1027-1657): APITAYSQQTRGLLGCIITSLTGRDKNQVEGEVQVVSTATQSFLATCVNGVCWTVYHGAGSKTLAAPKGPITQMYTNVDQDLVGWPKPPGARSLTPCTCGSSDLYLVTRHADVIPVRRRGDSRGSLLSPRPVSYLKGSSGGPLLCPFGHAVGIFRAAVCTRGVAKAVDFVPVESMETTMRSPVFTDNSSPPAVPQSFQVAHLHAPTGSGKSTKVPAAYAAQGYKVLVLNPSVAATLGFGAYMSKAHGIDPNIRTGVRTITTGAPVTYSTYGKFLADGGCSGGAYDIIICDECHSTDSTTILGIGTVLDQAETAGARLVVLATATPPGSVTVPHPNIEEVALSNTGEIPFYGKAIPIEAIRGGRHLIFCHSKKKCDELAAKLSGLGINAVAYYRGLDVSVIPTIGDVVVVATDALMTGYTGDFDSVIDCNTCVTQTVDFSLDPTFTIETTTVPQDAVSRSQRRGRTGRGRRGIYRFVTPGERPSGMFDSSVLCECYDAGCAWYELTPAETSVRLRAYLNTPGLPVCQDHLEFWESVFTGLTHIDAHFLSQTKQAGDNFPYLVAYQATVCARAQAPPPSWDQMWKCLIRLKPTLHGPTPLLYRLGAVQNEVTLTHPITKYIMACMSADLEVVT
SMILES,IC50 [1] [µM],IC50 [2] [µM]
O=C(O)Cc1cn(Cc2csc3ccc(Cl)cc23)c2cc(-c3cccc(O)c3)ccc12 [Example 625],< 10,–
Cc1ccccc1-c1ccc2c(CC(=O)O)cn(Cc3csc4ccc(Cl)cc34)c2c1 [Example 626],< 10,–
Cc1ccc(N)cc1-c1ccc2c(CC(=O)O)cn(Cc3csc4ccc(Cl)cc34)c2c1 [Example 627],< 10,–
CCNc1nc(NCC)nc(-c2ccc3c(CC(=O)O)cn(Cc4csc5ccc(Cl)cc45)c3c2)n1 [Example 632],< 10,–
CNc1nc(-c2ccc3c(CC(=O)O)cn(Cc4csc5ccc(Cl)cc45)c3c2)nc2[nH]cnc12 [Example 640],< 10,–
NC(=O)c1ccc(N)cc1-c1ccc2c(CC(=O)O)cn(Cc3csc4ccc(Cl)cc34)c2c1 [Example 641],10 to 50,–
COC(=O)c1ccc(N)cc1-c1ccc2c(CC(=O)O)cn(Cc3csc4ccc(Cl)cc34)c2c1 [Example 642],< 10,–
CNc1cc(NC)cc(-c2ccc3c(CC(=O)O)cn(Cc4csc5ccc(Cl)cc45)c3c2)c1 [Example 646],< 10,–
CNc1cc(N)cc(-c2ccc3c(CC(=O)O)cn(Cc4csc5ccc(Cl)cc45)c3c2)c1 [Example 647],< 10,–
CC(=O)Nc1cc(NC(C)=O)cc(-c2ccc3c(CC(=O)O)cn(Cc4csc5ccc(Cl)cc45)c3c2)c1 [Example 648],< 10,–
CC(C)Nc1cc(NC(C)C)cc(-c2ccc3c(CC(=O)O)cn(Cc4csc5ccc(Cl)cc45)c3c2)c1 [Example 649],< 10,–
CC(C)Nc1cc(N)cc(-c2ccc3c(CC(=O)O)cn(Cc4csc5ccc(Cl)cc45)c3c2)c1 [Example 650],< 10,–
Nn1cc(-c2ccc3c(CC(=O)O)cn(Cc4csc5ccc(Cl)cc45)c3c2)c(=O)n(N)c1=O [Example 651],> 50,–
Nn1c(=O)[nH]cc(-c2ccc3c(CC(=O)O)cn(Cc4csc5ccc(Cl)cc45)c3c2)c1=O [Example 652],10 to 50,–
Nn1cc(-c2ccc3c(CC(=O)O)cn(Cc4csc5ccc(Cl)cc45)c3c2)c(=O)[nH]c1=O [Example 653],10 to 50,–
CC(C)(C)OC(=O)Nc1ncc(-c2ccc3c(CC(=O)O)cn(Cc4csc5ccc(Cl)cc45)c3c2)s1 [Example 657],–,< 10
CC(C)(C)OC(=O)Nc1nnc(-c2ccc3c(CC(=O)O)cn(Cc4csc5ccc(Cl)cc45)c3c2)s1 [Example 658],–,< 10
CC(C)(C)OC(=O)Nc1nnc(-c2ccc3c(CC(=O)O)cn(Cc4csc5ccc(Cl)cc45)c3c2)s1 [Example 659],–,10 to 50

# Second part, the compound after the results:
IC50 [1] [µM],IC50 [2] [µM],SMILES
< 10,–,Cc1c(N)cc(N)cc1-c1ccc2c(CC(=O)O)cn(Cc3csc4ccc(Cl)cc34)c2c1 [Example 628]
< 10,–,Nc1cc(-c2ccc3c(CC(=O)O)cn(Cc4csc5ccc(Cl)cc45)c3c2)nc(N)n1 [Example 629]
< 10,–,Nc1ccnc(-c2ccc3c(CC(=O)O)cn(Cc4csc5ccc(Cl)cc45)c3c2)n1 [Example 630]
10 to 50,–,Nc1nc(-c2ccc3c(CC(=O)O)cn(Cc4csc5ccc(Cl)cc45)c3c2)ncc1F [Example 633]
10 to 50,–,Nc1cc(N)nc(-c2ccc3c(CC(=O)O)cn(Cc4csc5ccc(Cl)cc45)c3c2)n1 [Example 635]
< 10,–,Nc1nc(Cl)cc(-c2ccc3c(CC(=O)O)cn(Cc4csc5ccc(Cl)cc45)c3c2)n1 [Example 636]
< 10,–,Nc1nc(Cl)c(C=O)c(-c2ccc3c(CC(=O)O)cn(Cc4csc5ccc(Cl)cc45)c3c2)n1 [Example 637]
10 to 50,–,Nc1cc(-c2ccc3c(CC(=O)O)cn(Cc4csc5ccc(Cl)cc45)c3c2)cc(N)n1 [Example 638]
10 to 50,–,Nc1nc(-c2ccc3c(CC(=O)O)cn(Cc4csc5ccc(Cl)cc45)c3c2)c2nc[nH]c2n1 [Example 639]
–,< 10,NC(=O)c1nc(N)sc1-c1ccc2c(CC(=O)O)cn(Cc3csc4ccc(Cl)cc34)c2c1 [Example 654]
–,10 to 50,NC(=O)c1nc(N)sc1-c1ccc2c(CC(=O)O)cn(Cc3csc4ccc(Cl)cc34)c2c1 [Example 655]
–,10 to 50,Nc1ncc(-c2ccc3c(CC(=O)O)cn(Cc4csc5ccc(Cl)cc45)c3c2)s1 [Example 656]
